Data taken from US20200223837A1, “BENZOFURAN AMIDES AND HETEROAROMATIC ANALOGUES THEREOF FOR USE IN THERAPY” (European Molecular Biology Laboratory, priority 2017, published 2020).
Structures can show the parent of a compound that is named as a salt.

Target: T1, pirin (Homo sapiens, UniProt O00625)
T1 sequence (O00625 1-290): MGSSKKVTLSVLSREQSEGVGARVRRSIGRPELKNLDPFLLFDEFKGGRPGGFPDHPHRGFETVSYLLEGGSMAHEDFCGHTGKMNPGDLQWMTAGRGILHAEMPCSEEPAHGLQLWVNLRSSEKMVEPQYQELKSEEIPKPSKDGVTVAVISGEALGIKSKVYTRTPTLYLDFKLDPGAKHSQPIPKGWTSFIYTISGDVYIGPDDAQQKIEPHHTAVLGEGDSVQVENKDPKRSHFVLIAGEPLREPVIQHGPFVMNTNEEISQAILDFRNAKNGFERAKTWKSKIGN
Test: Nano differential scanning fluorimetry (NanoDSF), thermal melting of pirin
Settings: 10 μM pirin in PBS, 20 μM test compound
Description: NanoDSF is an advanced Differential Scanning Fluorimetry method for measuring protein stability using intrinsic tryptophan or tyrosine fluorescence. The fluorescence of the tryptophans and tyrosines in a protein is strongly dependent on their close surroundings. Changes in protein structure typically affect both the intensity and the emission wavelength especially of tryptophan fluorescence. By measuring fluorescence intensity at 330 nm and 350 nm, the change in fluorescence intensity and the shift of the fluorescence maximum upon unfolding can be used to detect thermal melting of the protein. Proteins are stabilized when associated with ligands and show a shift in their melting temperatures. NanoDSF has the advantages of being label free and observing the protein in solution.
A 10 μM solution of pirin in phosphate buffered saline, with or without 20 μM test compound, is subject to thermal denaturation under fluorescence monitoring using a Prometheus NT.48 instrument of NanoTemper Technologies. Unliganded pirin has a complex biphasic melting curve. […] If the test compound is a ligand to pirin, it adopts a single thermal transition some 10° C. above that of apopirin.

Row | Structure (SMILES) | increase in the Tm of melting
1 | Cc1cc2occ(CC(=O)Nc3nc(-c4ccc(CN)cc4)cs3)c2cc1C [Example 101, N-[4-[4-(Aminomethyl)phenyl]thiazol-2-yl]-2-(5,6-dimethylbenzofuran-3-yl)acetamide, hydrochloride salt] | approximately 11 °C

Tested on: EGR1 promoter
Test: EGR1 reporter assay (luciferase) in genomically engineered HeLa cell line
Assay type: cell-based
Settings: Homo sapiens; EGR1 reporter HeLa cells, luciferase activity after 24 hours with compound
Description: The compounds of the present invention can be characterized for their effect on expression of egr1 (early growth response protein 1) using an EGR1 reporter cell line.
The HeLa cell line was genetically modified to provide a simple, robust and highly reproducible cell-based assay reporting the activity of an endogenous EGR1 promoter. In brief, a construct encoding EGFP and luciferase proteins, separated by a self-cleaving P2A peptide was inserted, using CRISPR, immediately downstream (3′) to the promoter of endogenous EGR1. Upon treatment with compounds, cells express EGFP and luciferase from EGR1 promoter, which can be readily detected either in live cells using microscopy or cytometry, or through detection of luciferase activity in cell lysates.
To achieve stable genomic integration of an EGR1-promoter dual reporter, two plasmids were generated: one contained the reporter construct (eGFP-P2A-luciferase) flanked by homology arms that direct insertion into genomic DNA, by homologous recombination, of a break in genomic DNA generated by guide RNA targeted cleavage by Cas9 endonuclease. The gRNA expressing plasmid was based on px330 (56), into which a gRNA sequence that targets a break in gDNA close to the start codon of EGR1 was cloned. The left homology arm (encoding part of EGR1 promoter adjacent to its start codon) and right homology arm (encoding […] of start codon of EGR1) were cloned from gDNA using the following primers: […]
The present compounds can be tested, e.g. by using a HeLa cell line carrying an EGR1 reporter construct which allows for expression of luciferase and eGFP (enhanced GFP) controlled by the EGR1 promoter. For this reporter cells are seeded in the wells of a 384 well microtiter plate at a density of 2000 cells per well in 48 μl of DMEM supplemented with 4.5 g/l glucose, 2 mM glutamine and 10% FCS and are incubated for 24 hours at 37° C. with 5% CO2 and 95% humidity. Then, an eleven point 1:3 serial dilution of each test compound, from an initial concentration of 100 μM, is prepared in DMSO and the dilutions are added to the cells in a volume of 2 μl per well. The cells are incubated for a further 24 hours, after which the luciferase activity of each well is determined by addition of 25 μl of luciferase substrate reaction mixture (Britelite™ plus, Perkin Elmer) and measuring the bioluminescence light output (EnVision Xcite plate reader, PerkinElmer).
The compound of example 64 served as a positive control for this EGR1 reporter assay. The compound of example 64 had been identified in an initial high throughput screening campaign.

Row | EC50 | Structure (SMILES)
2 | 0.01 to 10 µM | Cc1cccc2c(CC(=O)Nc3ncc(C(F)(F)F)s3)coc12 [Example 72, 2-(7-Methylbenzofuran-3-yl)-N-[5-(trifluoromethyl)thiazol-2-yl]acetamide]
3 | 0.01 to 10 µM | CCc1ccc2c(CC(=O)Nc3ncc(C)s3)coc2c1 [Example 40, 2-(6-Ethylbenzofuran-3-yl)-N-(5-methylthiazol-2-yl)acetamide]
4 | 0.01 to 10 µM | O=C(Cc1coc2ncccc12)Nc1ncc(C(F)(F)F)s1 [Example 106, 2-(Furo[2,3-b]pyridin-3-yl)-N-(5-(trifluoromethyl)thiazol-2-yl)acetamide]
5 | 0.01 to 10 µM | Cc1c(Cl)ccc2c(CC(=O)Nc3ncc(C(F)(F)F)s3)coc12 [Example 94, 2-(6-Chloro-7-methyl-benzofuran-3-yl)-N-[5-(trifluoromethyl)thiazol-2-yl]acetamide]
6 | 0.01 to 10 µM | CC(C(=O)Nc1ncc(C(F)(F)F)s1)c1coc2cc(Cl)ccc12 (centres unmarked) [Example 66, 2-(6-Chlorobenzofuran-3-yl)-N-[5-(trifluoromethyl)thiazol-2-yl]propanamide]
7 | 10 to 100 µM | Cn1ccc(NC(=O)Cc2coc3cc4c(cc23)CCC4)n1 [Example 3, 2-(6,7-Dihydro-5H-cyclopenta[f]benzofuran-3-yl)-N-(1-methylpyrazol-3-yl)acetamide]
8 | 0.01 to 10 µM | Cc1ccc2c(CC(=O)Nc3ncc(C#N)s3)coc2c1C [Example 62, N-(5-Cyanothiazol-2-yl)-2-(6,7-dimethylbenzofuran-3-yl)acetamide]
9 | 0.01 to 10 µM | COc1ccc2c(CC(=O)Nc3ncc(C)s3)coc2c1C [Example 79, 2-(6-Methoxy-7-methyl-benzofuran-3-yl)-N-(5-methylthiazol-2-yl)acetamide]
10 | 0.01 to 10 µM | Cc1c[nH]c(NC(=O)Cc2coc3cc4c(cc23)CCC4)n1 [Example 23, 2-(6,7-dihydro-5H-cyclopenta[f]benzofuran-3-yl)-N-(5-methyl-1H-imidazol-2-yl)acetamide]
11 | 10 to 100 µM | COc1ccc2c(CC(=O)Nc3nc(CC(N)=O)cs3)coc2c1 [Example 7, N-[4-(2-Amino-2-oxo-ethyl)thiazol-2-yl]-2-(6-methoxybenzofuran-3-yl)acetamide]
12 | 0.01 to 10 µM | Cc1ccc2c(CC(=O)Nc3ncc(C#N)s3)coc2c1Cl [Example 59, 2-(7-Chloro-6-methyl-benzofuran-3-yl)-N-(5-cyano-1H-thiazol-2-yl)acetamide]
13 | 0.01 to 10 µM | COc1ccc2c(CC(=O)N(c3ccc(SC(F)F)cc3)c3nc4ccccc4s3)coc2c1 [Example 77, N-(1,3-Benzothiazol-2-yl)-N-[4-(difluoromethylsulfanyl)phenyl]-2-(6-methoxybenzofuran-3-yl)acetamide]
14 | 0.01 to 10 µM | COCc1cnc(NC(=O)Cc2coc3c(Cl)c(C)ccc23)s1 [Example 89, 2-(7-Chloro-6-methyl-benzofuran-3-yl)-N-[5-(methoxymethyl)thiazol-2-yl]acetamide]
15 | 0.01 to 10 µM | O=C(Cc1coc2c(Cl)cccc12)Nc1ncc(C(F)(F)F)s1 [Example 53, 2-(7-Chlorobenzofuran-3-yl)-N-[5-(trifluoromethyl)thiazol-2-yl]acetamide]
16 | 0.01 to 10 µM | N#Cc1cnc(NC(=O)Cc2coc3c(Cl)c(Cl)ccc23)s1 [Example 73, N-(5-Cyanothiazol-2-yl)-2-(6,7-dichlorobenzofuran-3-yl)acetamide]
17 | 10 to 100 µM | Cc1cc2occ(CC(=O)Nc3nc(-c4ccccn4)cs3)c2cc1C [Example 9, 2-(5,6-Dimethylbenzofuran-3-yl)-N-[4-(2-pyridyl)thiazol-2-yl]acetamide]
18 | 10 to 100 µM | Cc1cnc(NC(=O)Cc2coc3c(C)c(C)ccc23)[nH]1 [Example 22, 2-(6,7-Dimethylbenzofuran-3-yl)-N-(5-methyl-1H-imidazol-2-yl)acetamide]
19 | 0.01 to 10 µM | O=C(Cc1coc2cc3c(cc12)CCC3)Nc1ncc(C(F)(F)F)s1 [Example 63, 2-(6,7-Dihydro-5H-cyclopenta[f]benzofuran-3-yl)-N-[5-(trifluoromethyl)thiazol-2-yl]acetamide]
20 | 10 to 100 µM | Cc1cnc(NC(=O)Cc2coc3cc4c(cc23)CCC4)o1 [Example 17, 2-(6,7-Dihydro-5H-cyclopenta[f]benzofuran-3-yl)-N-(5-methyloxazol-2-yl)acetamide]
21 | 10 to 100 µM | Cc1ccc2occ(CC(=O)Nc3ncc(C(F)(F)F)s3)c2c1 [Example 4, 2-(5-Methylbenzofuran-3-yl)-N-[5-(trifluoromethyl)thiazol-2-yl]acetamide]
22 | 10 to 100 µM | Cc1cnc(NC(=O)Cc2coc3c(C)cccc23)s1 [Example 10, 2-(7-Methylbenzofuran-3-yl)-N-(5-methylthiazol-2-yl)acetamide]
23 | 0.01 to 10 µM | CCc1cnc(NC(=O)Cc2coc3cc4c(cc23)CCC4)s1 [Example 84, 2-(6,7-Dihydro-5H-cyclopenta[f]benzofuran-3-yl)-N-(5-ethylthiazol-2-yl)acetamide]
24 | 0.01 to 10 µM | COCc1cnc(NC(=O)Cc2coc3cc4c(cc23)CCC4)s1 [Example 65, 2-(6,7-Dihydro-5H-cyclopenta[f]benzofuran-3-yl)-N-[5-(methoxymethyl)thiazol-2-yl]acetamide]
25 | 0.01 to 10 µM | Cc1cnc(NC(=O)Cc2coc3c(Cl)c(C)ccc23)[nH]1 [Example 57, 2-(7-Chloro-6-methyl-benzofuran-3-yl)-N-(5-methyl-1H-imidazol-2-yl)acetamide]

Row | Structure (SMILES) | EC50
26 | Cc1cc2occ(CC(=O)Nc3nc(-c4ccc(CN)cc4)cs3)c2cc1C [Example 101, N-[4-[4-(Aminomethyl)phenyl]thiazol-2-yl]-2-(5,6-dimethylbenzofuran-3-yl)acetamide, hydrochloride salt] | 0.01 to 10 µM

Tested on: patient derived CLL samples
Test: Growth inhibition of cells derived from patients with CLL
Assay type: cell-based
Settings: 45 of 97 samples; three days incubation, ATPlite
Procedure: HeLa, A549 and HCT116 cells were grown in high-glucose Dulbecco's Modified Eagle's Medium (DMEM, Sigma)+10% FBS+1% penicillin and streptomycin+1% L-glutamine, at 37° C. with 5% CO2 and 95% humidity. Cytotoxic screening of the ProQinase panel of 100 cell-lines was performed by ProQinase (Freiburg, Germany). Patient derived CLL isolates were prepared and screened as described by Dietrich et al. (S. Dietrich et al., J Clin Invest, 2018, 128(1), 427-445). Cell viability was determined after 48 hours using the ATP-based CellTiter Glo assay (Promega). Luminescence was measured with a Tecan Infinite F200 Microplate Reader (Tecan Group AG) and with an integration time of 0.2 seconds per well.
The response of 97 tumour samples derived from patients with CLL was investigated. All samples tumor cells were obtained from whole blood, subjected to Ficoll-Isopaque density centrifugation. CD19+B and CD3+ T cells were isolated by positive magnetic cell separation (Miltenyi Biotec). Sorted cells were checked for purity by fluorescence-activated cell sorting (FACS) with CD19/CD20 for healthy control samples and CD19/CD20/CD5 for CLL samples (BD Biosciences). Following sorting, all samples with a CD19/CD20/CD5 purity <98% were subjected to additional sorting, and the average final purity of all sorted samples was >99%. CLL samples with >[…] were not subject to purification.
Cells are incubated for three days with an eight-point three-fold titration series of the test compound from an initial concentration of 30 μM (2000 cells per well in a volume of 50 μl). Cellular viability is estimated by the addition of 25 μL of ATPlite (Perkin Elmer) with the resulting luminescence measured using an EnVision Xcite plate reader (Perkin Elmer).
In addition, the growth inhibitory response of a selection of 27 patient derived CLL isolates (S. Dietrich et al., J Clin Invest, 2018, 128(1), 427-445) against the compounds of examples 64 and 85 was evaluated using the procedure as described above.

Row | Structure (SMILES) | patient samples killed with an EC50 less than 10 μM
27 | Cc1cccc2c(CC(=O)Nc3ncc(C(F)(F)F)s3)coc12 [Example 72, 2-(7-Methylbenzofuran-3-yl)-N-[5-(trifluoromethyl)thiazol-2-yl]acetamide] | 46%

Same assay, conditions: 90 of 97 samples; three days incubation, ATPlite

Row | Structure (SMILES) | patient derived CLL samples with cytotoxic effect
28 | Cc1cccc2c(CC(=O)Nc3ncc(C(F)(F)F)s3)coc12 [Example 72, 2-(7-Methylbenzofuran-3-yl)-N-[5-(trifluoromethyl)thiazol-2-yl]acetamide] | 93%

Target: T1, pirin
Test: Surface plasmon resonance on immobilized pirin (Biacore)
Assay type: binding
Parameters: hexahistidine tag (N); strep tag (C); host or cells: E. coli
Settings: SPR, pirin on CM7 chip, PBS with 2% DMSO and 0.05% tween 20
Procedure: A control chip was also prepared under identical condition but without including pirin in the reaction. […] A series of increasing concentrations of compound, either the control ThPA or a compound of the present invention is then applied to the pirin modified CM7 chip in phosphate buffered saline containing 2% DMSO and 0.05% tween 20 and sensorgrams are recorded covering the association, equilibrium and dissociation phases of the response.

Row | Kd | Structure (SMILES)
29 | 1.6 µM | Cc1cccc2c(CC(=O)Nc3ncc(C(F)(F)F)s3)coc12 [Example 72, 2-(7-Methylbenzofuran-3-yl)-N-[5-(trifluoromethyl)thiazol-2-yl]acetamide]
